“And” between values parts separate entries of the source, which are not always exact repeats. Identical values can stand only once. Inconclusive results and toxic doses are left out.
System: CD2F1 mice, L1210 leukemia ip, survival T/C
Test: NCI In Vivo Anticancer Drug Screen. Data for tumor model L1210 Leukemia (intraperitoneal) in CD2F1 (CDF1) mice
Details: higher = longer survival
Outline: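 Read-out first: treated-group measurement over vehicle-control measurement, expressed as a ratio. Animals bore a transplanted tumor line and were dosed with compound or vehicle.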

[1] = endpoint: mean survival time, dose: 100.0 mg/kg/injection, schedule: Q01DX001 (ip), vehicle: saline
[2] = endpoint: mean survival time, dose: 200.0 mg/kg/injection, schedule: Q01DX001 (ip), vehicle: saline
[3] = endpoint: mean survival time, dose: 400.0 mg/kg/injection, schedule: Q01DX001 (ip), vehicle: saline
[4] = endpoint: mean survival time, dose: 100.0 mg/kg/injection, schedule: Q01DX009 (ip), vehicle: saline with Tween-80
[5] = endpoint: mean survival time, dose: 100.0 mg/kg/injection, schedule: Q04DX003 (ip), vehicle: saline with Tween-80
[6] = endpoint: mean survival time, dose: 200.0 mg/kg/injection, schedule: Q04DX003 (ip), vehicle: saline with Tween-80
[7] = endpoint: mean survival time, dose: 400.0 mg/kg/injection, schedule: Q04DX003 (ip), vehicle: saline with Tween-80
[8] = endpoint: mean survival time, dose: 25.0 mg/kg/injection, schedule: Q04DX003 (ip), vehicle: saline with Tween-80

Compound: O=Cc1ccc(OCCCOc2ccc([N+](=O)[O-])cc2)cc1
- T/C (endpoint: mean survival time, dose: 100.0 mg/kg/injection, schedule: Q04DX002 (ip), vehicle: Klucel (hydroxypropylcellulose) (HPC)): 102 % of control
- T/C (endpoint: mean survival time, dose: 200.0 mg/kg/injection, schedule: Q04DX002 (ip), vehicle: Klucel (hydroxypropylcellulose) (HPC)): 94 % of control
- T/C (endpoint: mean survival time, dose: 400.0 mg/kg/injection, schedule: Q04DX002 (ip), vehicle: Klucel (hydroxypropylcellulose) (HPC)): 102 % of control

Compound: CCN(CCO)c1ccc(N)cc1C
- T/C (endpoint: mean survival time, dose: 1.56 mg/kg/injection, schedule: Q01DX009 (ip), vehicle: saline): 100 % of control
- T/C (endpoint: mean survival time, dose: 1.56 mg/kg/injection, schedule: Q04DX003 (ip), vehicle: saline): 101 % of control
- T/C (endpoint: mean survival time, dose: 3.13 mg/kg/injection, schedule: Q01DX009 (ip), vehicle: saline): 100 % of control
- T/C (endpoint: mean survival time, dose: 3.13 mg/kg/injection, schedule: Q04DX003 (ip), vehicle: saline): 104 % of control
- T/C (endpoint: mean survival time, dose: 6.25 mg/kg/injection, schedule: Q01DX009 (ip), vehicle: saline): 101 % of control
- T/C (endpoint: mean survival time, dose: 6.25 mg/kg/injection, schedule: Q04DX003 (ip), vehicle: saline): 97 % of control

Compound: COC1=C(OC)C(=O)C(C/C=C(\C)CC/C=C(\C)CC/C=C(\C)CC/C=C(\C)CC/C=C(\C)CCC=C(C)C)=C(C)C1=O
- T/C [1]: 102 % of control
- T/C [2]: 103 % of control
- T/C [3]: 100 % of control

Compound: Cc1ccc(S(=O)(=O)N(C)N=O)cc1
- T/C [4]: 89 % of control
- T/C [5]: 97 % of control
- T/C (endpoint: mean survival time, dose: 200.0 mg/kg/injection, schedule: Q01DX009 (ip), vehicle: saline with Tween-80): 106 % of control
- T/C [6]: 102 % of control
- T/C (endpoint: mean survival time, dose: 400.0 mg/kg/injection, schedule: Q01DX009 (ip), vehicle: saline with Tween-80): 102 % of control
- T/C [7]: 107 % of control

Compound: O=C1N(Cc2ccccc2)CC2C(c3ccccc3)NNC12O (stereo not given)
- T/C [5]: 89 % of control
- T/C [7]: 101 % of control

Compound: O=C(CN1CC1)NCCCCCCCCCNC(=O)CN1CC1
- T/C (endpoint: mean survival time, dose: 22.0 mg/kg/injection, schedule: Q01DX001 (ip), vehicle: carboxymethylcellulose (CMC)): 113 % of control
- T/C (endpoint: mean survival time, dose: 33.0 mg/kg/injection, schedule: Q01DX001 (ip), vehicle: carboxymethylcellulose (CMC)): 117 % of control

Compound: NC(=O)c1cn(C2OC(CO)C(O)C2O)c2ncn3ncnc3c12 (stereo not given)
- T/C (endpoint: mean survival time, dose: 3.13 mg/kg/injection, schedule: Q01DX005 (ip), vehicle: water): 113 % of control
- T/C (endpoint: mean survival time, dose: 6.25 mg/kg/injection, schedule: Q01DX005 (ip), vehicle: water): 112 % of control
- T/C (endpoint: mean survival time, dose: 12.5 mg/kg/injection, schedule: Q01DX005 (ip), vehicle: water): 116 % of control
- T/C (endpoint: mean survival time, dose: 50.0 mg/kg/injection, schedule: Q01DX005 (ip), vehicle: water): 98 % of control

Compound: COc1ccc(NC(=O)Nc2c(Oc3ccc(Cl)cc3)ccc(Cl)c2S(=O)(=O)O)cc1Cl
- T/C (endpoint: mean survival time, dose: 50.0 mg/kg/injection, schedule: Q01DX009 (ip), vehicle: saline): 98 % of control
- T/C (endpoint: mean survival time, dose: 100.0 mg/kg/injection, schedule: Q01DX009 (ip), vehicle: saline): 87 % of control
- T/C [5]: 93 % of control
- T/C [6]: 91 % of control

Compound: Cc1cccc2cc3c(sc4ccccc43)c(C)c12
- T/C (endpoint: mean survival time, dose: 7.9 mg/kg/injection, schedule: Q04DX003 (ip), vehicle: other): 101 % of control
- T/C (endpoint: mean survival time, dose: 15.7 mg/kg/injection, schedule: Q04DX003 (ip), vehicle: other): 97 % of control
- T/C (endpoint: mean survival time, dose: 31.3 mg/kg/injection, schedule: Q04DX003 (ip), vehicle: other): 97 % of control
- T/C (endpoint: mean survival time, dose: 62.5 mg/kg/injection, schedule: Q04DX003 (ip), vehicle: other): 97 % of control
- T/C (endpoint: mean survival time, dose: 125.0 mg/kg/injection, schedule: Q04DX003 (ip), vehicle: other): 93 % of control

Compound: CC(=O)O[C@@H]1CO[C@H]2O[C@H]3[C@@H](C(C=O)=C[C@H](O)[C@@H]4C5=C(C(C)C)CC[C@]5(C)CC[C@@]34C)[C@@]2(O)C1=O
- T/C (endpoint: mean survival time, dose: 0.75 mg/kg/injection, schedule: Q01DX009 (ip), vehicle: Klucel (hydroxypropylcellulose) (HPC)): 104 % of control
- T/C (endpoint: mean survival time, dose: 1.5 mg/kg/injection, schedule: Q01DX009 (ip), vehicle: Klucel (hydroxypropylcellulose) (HPC)): 104 % of control
- T/C (endpoint: mean survival time, dose: 3.0 mg/kg/injection, schedule: Q01DX009 (ip), vehicle: Klucel (hydroxypropylcellulose) (HPC)): 104 % of control
- T/C (endpoint: mean survival time, dose: 6.0 mg/kg/injection, schedule: Q01DX009 (ip), vehicle: Klucel (hydroxypropylcellulose) (HPC)): 107 % of control

Compound: Cc1c(C)c(CSC#N)c(C)c(C)c1CSC#N
- T/C (endpoint: mean survival time, dose: 75.0 mg/kg/injection, schedule: Q04DX003 (ip), vehicle: saline): 98 % of control
- T/C (endpoint: mean survival time, dose: 150.0 mg/kg/injection, schedule: Q04DX003 (ip), vehicle: saline): 102 % of control
- T/C (endpoint: mean survival time, dose: 300.0 mg/kg/injection, schedule: Q04DX003 (ip), vehicle: saline): 95 % of control

Compound: COc1ccc(CNCCO)cc1O
- T/C [1]: 101 % of control
- T/C [2]: 98 % of control
- T/C [3]: 98 % of control

Compound: Oc1ccc(CC2=NCCc3cc(O)c(O)cc32)cc1O
- T/C (endpoint: mean survival time, dose: 5.0 mg/kg/injection, schedule: Q01DX001 (ip), vehicle: saline): 104 % of control
- T/C (endpoint: mean survival time, dose: 10.0 mg/kg/injection, schedule: Q01DX001 (ip), vehicle: saline): 98 % of control
- T/C (endpoint: mean survival time, dose: 20.0 mg/kg/injection, schedule: Q01DX001 (ip), vehicle: saline): 98 % of control
- T/C (endpoint: mean survival time, dose: 40.0 mg/kg/injection, schedule: Q01DX001 (ip), vehicle: saline): 100 % of control
- T/C (endpoint: mean survival time, dose: 80.0 mg/kg/injection, schedule: Q01DX001 (ip), vehicle: saline): 102 % of control

Compound: COC(=O)c1cc2c3ccccc3ncc2c2ccccc12
- T/C [8]: 89 % of control
- T/C (endpoint: mean survival time, dose: 50.0 mg/kg/injection, schedule: Q04DX003 (ip), vehicle: saline with Tween-80): 89 % of control
- T/C [5]: 87 % of control
- T/C [6]: 89 % of control
- T/C [7]: 89 % of control

Compound: O=c1cn[nH]c2c(Cl)cccc12
- T/C (endpoint: mean survival time, dose: 100.0 mg/kg/injection, schedule: Q01DX001 (ip), vehicle: carboxymethylcellulose (CMC)): 106 % of control
- T/C (endpoint: mean survival time, dose: 200.0 mg/kg/injection, schedule: Q01DX001 (ip), vehicle: carboxymethylcellulose (CMC)): 95 % of control

Compound: N#CSc1nc2ccccc2s1
- T/C (endpoint: mean survival time, dose: 25.0 mg/kg/injection, schedule: Q01DX009 (ip), vehicle: saline with Tween-80): 96 % of control
- T/C (endpoint: mean survival time, dose: 50.0 mg/kg/injection, schedule: Q01DX009 (ip), vehicle: saline with Tween-80): 94 % of control
- T/C [4]: 97 % of control

Compound: CCOC(=O)C([NH-])C([NH-])C(=O)OCC.[Cl][Pt+2][Cl] (stereo not given)
- T/C (endpoint: mean survival time, dose: 12.5 mg/kg/injection, schedule: Q04DX003 (ip), vehicle: saline with Tween-80): 186 % of control
- T/C [8]: 195 % of control

Compound: O=C1CC2(C(=O)N1CN1CCCCC1)c1ccccc1-c1ccccc12
- T/C (endpoint: mean survival time, dose: 12.5 mg/kg/injection, schedule: Q01DX009 (ip), vehicle: Klucel (hydroxypropylcellulose) (HPC)): 94 % of control and 102 % of control
- T/C (endpoint: mean survival time, dose: 25.0 mg/kg/injection, schedule: Q01DX009 (ip), vehicle: Klucel (hydroxypropylcellulose) (HPC)): 91 % of control and 105 % of control
- T/C (endpoint: mean survival time, dose: 50.0 mg/kg/injection, schedule: Q01DX009 (ip), vehicle: Klucel (hydroxypropylcellulose) (HPC)): 98 % of control and 100 % of control
- T/C (endpoint: mean survival time, dose: 100.0 mg/kg/injection, schedule: Q01DX009 (ip), vehicle: Klucel (hydroxypropylcellulose) (HPC)): 94 % of control and 102 % of control
- T/C (endpoint: mean survival time, dose: 200.0 mg/kg/injection, schedule: Q01DX009 (ip), vehicle: Klucel (hydroxypropylcellulose) (HPC)): 100 % of control
- T/C (endpoint: mean survival time, dose: 400.0 mg/kg/injection, schedule: Q01DX009 (ip), vehicle: Klucel (hydroxypropylcellulose) (HPC)): 158 % of control

Compound: O=C(CBr)Nc1cc([N+](=O)[O-])ccc1O
- T/C (endpoint: mean survival time, dose: 6.25 mg/kg/injection, schedule: Q01DX009 (ip), vehicle: saline with Tween-80): 91 % of control
- T/C (endpoint: mean survival time, dose: 12.5 mg/kg/injection, schedule: Q01DX009 (ip), vehicle: saline with Tween-80): 98 % of control

Compound: CCC1=[N+]([O-])[N+]([O-])=C(c2ccccc2)C1=O
- T/C (endpoint: mean survival time, dose: 50.0 mg/kg/injection, schedule: Q01DX009 (ip), vehicle: other): 93 % of control
- T/C (endpoint: mean survival time, dose: 100.0 mg/kg/injection, schedule: Q01DX009 (ip), vehicle: other): 101 % of control
- T/C (endpoint: mean survival time, dose: 200.0 mg/kg/injection, schedule: Q01DX009 (ip), vehicle: other): 93 % of control

Compound: CC[C@@]1(OC(=O)C(N)CCCCN)C(=O)OCc2c1cc1n(c2=O)Cc2cc3ccccc3nc2-1 (stereo not given in full)
- T/C (endpoint: median survival time, dose: 7.29 mg/kg/injection, schedule: Q04DX002 (ip), vehicle: water): 114 % of control
- T/C (endpoint: median survival time, dose: 10.94 mg/kg/injection, schedule: Q04HX004 (iv), vehicle: water): 165 % of control and 178 % of control
- T/C (endpoint: median survival time, dose: 14.58 mg/kg/injection, schedule: Q04DX002 (ip), vehicle: water): 122 % of control
- T/C (endpoint: median survival time, dose: 21.87 mg/kg/injection, schedule: Q04HX004 (iv), vehicle: water): 197 % of control and 201 % of control
- T/C (endpoint: median survival time, dose: 29.17 mg/kg/injection, schedule: Q04DX002 (ip), vehicle: water): 188 % of control and 204 % of control
- T/C (endpoint: median survival time, dose: 58.33 mg/kg/injection, schedule: Q04DX002 (ip), vehicle: water): 231 % of control and 253 % of control
- T/C (endpoint: median survival time, dose: 116.7 mg/kg/injection, schedule: Q04DX002 (ip), vehicle: water): 214 % of control

Source: PubChem BioAssay AID256 (DTP/NCI, 2004)
